PubChem BioAssay (NCI)
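48-hour exposure; five concentrations; linearly interpolated endpoints. At the TGI there is no net growth.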

Assays:
Experiment in all cases: NCI-60 cell line screen, 48 h
BT-549 breast = tested on: BT-549 breast
HL-60(TB) leukemia = tested on: HL-60(TB) leukemia
HOP-92 NSCLC = tested on: HOP-92 NSCLC
HS 578T breast = tested on: HS 578T breast
MCF7 breast = tested on: MCF7 breast
MOLT-4 leukemia = tested on: MOLT-4 leukemia
NCI-H460 lung = tested on: NCI-H460 lung
RPMI-8226 leukemia = tested on: RPMI-8226 leukemia
SK-MEL-5 melanoma = tested on: SK-MEL-5 melanoma
UACC-62 melanoma = tested on: UACC-62 melanoma
SNB-19 CNS = tested on: SNB-19 CNS

CC[C@@]1(O)C(=O)OCc2c1cc1n(c2=O)Cc2c-1nc1ccc(O)cc1c2[Si](C)(C)C(C)(C)C
TGI (BT-549 breast): 1.17 µM | TGI (HL-60(TB) leukemia): < 0.01 µM | TGI (HOP-92 NSCLC): 2.31 µM | TGI (HS 578T breast): > 57.9 µM | TGI (MCF7 breast): > 41.2 µM | TGI (MOLT-4 leukemia): 0.106 µM | TGI (NCI-H460 lung): 0.0263 µM | TGI (RPMI-8226 leukemia): 4.77 µM | TGI (SK-MEL-5 melanoma): 0.0387 µM | TGI (UACC-62 melanoma): 0.164 µM

O[C@@H]1C=C[C@]23CCN(Cc4cc5c(cc42)OCO5)[C@@H]3C1
TGI (BT-549 breast): > 100 µM | TGI (HL-60(TB) leukemia): > 100 µM | TGI (HOP-92 NSCLC): > 100 µM | TGI (HS 578T breast): > 100 µM | TGI (MCF7 breast): > 100 µM | TGI (MOLT-4 leukemia): > 100 µM | TGI (NCI-H460 lung): > 100 µM | TGI (RPMI-8226 leukemia): > 100 µM | TGI (SK-MEL-5 melanoma): > 100 µM | TGI (SNB-19 CNS): > 100 µM | TGI (UACC-62 melanoma): > 100 µM

COC(=O)[C@@H]1CS(=O)(=O)C(C(C)C)N1C(C)=O (stereo not given in full)
TGI (BT-549 breast): > 100 µM | TGI (HL-60(TB) leukemia): 32.1 µM | TGI (HOP-92 NSCLC): > 100 µM | TGI (HS 578T breast): > 100 µM | TGI (MCF7 breast): > 100 µM | TGI (NCI-H460 lung): > 100 µM | TGI (RPMI-8226 leukemia): > 100 µM | TGI (SK-MEL-5 melanoma): > 100 µM | TGI (SNB-19 CNS): > 100 µM | TGI (UACC-62 melanoma): > 100 µM

Cc1cn(C2CCC(CO)(CF)O2)c(=O)[nH]c1=O (stereo not given)
TGI (BT-549 breast): > 100 µM | TGI (HL-60(TB) leukemia): > 100 µM | TGI (HOP-92 NSCLC): > 100 µM | TGI (HS 578T breast): > 100 µM | TGI (MCF7 breast): > 100 µM | TGI (MOLT-4 leukemia): > 100 µM | TGI (NCI-H460 lung): > 100 µM | TGI (RPMI-8226 leukemia): > 100 µM | TGI (SK-MEL-5 melanoma): > 100 µM | TGI (SNB-19 CNS): > 100 µM | TGI (UACC-62 melanoma): > 100 µM

FC(F)(F)c1cc(N(C2c3ccccc3C=Cc3ccccc32)P(Cl)Cl)cc(C(F)(F)F)c1
TGI (BT-549 breast): 23 µM | TGI (HL-60(TB) leukemia): 81.6 µM | TGI (HOP-92 NSCLC): 30.4 µM | TGI (HS 578T breast): 79.5 µM | TGI (MCF7 breast): 50 µM | TGI (MOLT-4 leukemia): 54.4 µM | TGI (RPMI-8226 leukemia): 51.2 µM | TGI (SK-MEL-5 melanoma): 32.7 µM | TGI (SNB-19 CNS): 56.8 µM

Cc1cc(C)c2c(c1)CC1(Cc3cc(C)c(C)cc3C1=O)C2=O (stereo not given)
TGI (BT-549 breast): > 100 µM | TGI (HL-60(TB) leukemia): > 100 µM | TGI (HOP-92 NSCLC): > 100 µM | TGI (HS 578T breast): > 100 µM | TGI (MCF7 breast): > 100 µM | TGI (MOLT-4 leukemia): > 100 µM | TGI (NCI-H460 lung): > 100 µM | TGI (RPMI-8226 leukemia): > 100 µM | TGI (SK-MEL-5 melanoma): > 100 µM | TGI (SNB-19 CNS): > 100 µM | TGI (UACC-62 melanoma): > 100 µM

C1=C(c2ccccc2)C(N2CCOCC2)Oc2ccccc21 (stereo not given)
TGI (BT-549 breast): > 100 µM | TGI (HL-60(TB) leukemia): > 100 µM | TGI (HOP-92 NSCLC): > 100 µM | TGI (HS 578T breast): > 100 µM | TGI (MCF7 breast): > 100 µM | TGI (MOLT-4 leukemia): > 100 µM | TGI (NCI-H460 lung): > 100 µM | TGI (RPMI-8226 leukemia): > 100 µM | TGI (SK-MEL-5 melanoma): > 100 µM | TGI (SNB-19 CNS): > 100 µM | TGI (UACC-62 melanoma): > 100 µM

O=C1COc2cc(N3CCN(c4cccc(C(F)(F)F)c4)CC3)ccc2N1
TGI (BT-549 breast): > 100 µM | TGI (HL-60(TB) leukemia): > 100 µM | TGI (HOP-92 NSCLC): > 100 µM | TGI (HS 578T breast): > 100 µM | TGI (MCF7 breast): > 100 µM | TGI (MOLT-4 leukemia): > 100 µM | TGI (NCI-H460 lung): > 100 µM | TGI (RPMI-8226 leukemia): > 100 µM | TGI (SK-MEL-5 melanoma): > 100 µM | TGI (SNB-19 CNS): > 100 µM | TGI (UACC-62 melanoma): > 100 µM

Cc1c(C(=O)c2ccc(N)c3ccccc23)c2ccccc2n1CCN1CCOCC1
TGI (BT-549 breast): 80.1 µM | TGI (HL-60(TB) leukemia): 58.1 µM | TGI (HOP-92 NSCLC): 75.6 µM | TGI (HS 578T breast): 48.4 µM | TGI (MCF7 breast): 70.9 µM | TGI (MOLT-4 leukemia): > 67.7 µM | TGI (NCI-H460 lung): > 77.1 µM | TGI (RPMI-8226 leukemia): > 61.1 µM | TGI (SK-MEL-5 melanoma): 33.7 µM | TGI (SNB-19 CNS): > 100 µM | TGI (UACC-62 melanoma): 40.6 µM
